Assay results from ChEMBL document CHEMBL3885861, “Open TG-GATES”.

Organism: Rattus norvegicus
Assay: Open TG-GATES - Regimen: Single
Type: toxicity, organism-based, Sprague-Dawley
Parameters: regimen Single, gender Male, age 6 weeks
Conditions: in vivo, iv, route intravenous injection; for APTT / Bas / Eos / Fbg / Hb / Ht / Lym / MCH / MCHC / MCV / Mono / Neu / Plat / RBC / Ret / WBC / PT: tissue Blood; for KIDNEY_L / KIDNEY_R / KIDNEY_TOTAL: tissue Kidney; for LIVER: tissue Liver
[1] = 1 mg/kg, 9 h, dose level Middle
[2] = 1 mg/kg, 9 h, tissue Plasma, dose level Middle
[3] = 1 mg/kg, 24 h, dose level Middle
[4] = 1 mg/kg, 24 h, tissue Plasma, dose level Middle
[5] = 3 mg/kg, 3 h, tissue Plasma, dose level High

CISPLATIN
TERMINAL_BW [1]: 214.2 g | APTT [1]: 23.6 s | Bas [1]: 0% | Eos [1]: 0.4% | Fbg [1]: 267.8 mg/dL | Hb [1]: 12.7 g/dL | Ht [1]: 39.1% | Lym [1]: 81.8% | MCH [1]: 20.6 pg | MCHC [1]: 32.4% | MCV [1]: 63.7 fL | Mono [1]: 2.2% | Neu [1]: 15% | Plat [1]: 132.5 x10_4/uL | RBC [1]: 613.6 x10_4/ul | Ret [1]: 6.7% | WBC [1]: 93.8 x10_2/uL | KIDNEY_L [1]: 1 g | KIDNEY_R [1]: 1 g | KIDNEY_TOTAL [1]: 2 g | LIVER [1]: 9 g | ALP [2]: 1312 IU/L | ALT [2]: 39.2 IU/L | AST [2]: 73 IU/L | CRE [2]: 0.1 mg/dL | Ca [2]: 11 mg/dL | DBIL [2]: 0 mg/dL | GLC [2]: 179.2 mg/dL | IP [2]: 9.9 mg/dL | K [2]: 4.2 meq/L | Na [2]: 139.6 meq/L | PL [2]: 120.6 mg/dL | RALB [2]: 2.9 g/dL | TBIL [2]: 0.028 mg/dL | TC [2]: 67 mg/dL | TG [2]: 51.8 mg/dL | TP [2]: 5.3 g/dL | gamma-GTP [2]: 1.4 IU/L | TERMINAL_BW [3]: 213.8 g | Bas [3]: 0% | Eos [3]: 0.8% | Fbg [3]: 329 mg/dL | MCH [3]: 21 pg | MCHC [3]: 32.9% | MCV [3]: 63.9 fL | Mono [3]: 3% | Neu [3]: 16% | PT [3]: 16 s | Plat [3]: 128.4 x10_4/uL | RBC [3]: 631.8 x10_4/ul | Ret [3]: 5.2% | WBC [3]: 100.8 x10_2/uL | KIDNEY_L [3]: 1 g | KIDNEY_R [3]: 1 g | KIDNEY_TOTAL [3]: 2.1 g | ALT [4]: 46 IU/L | BUN [4]: 15.4 mg/dL | CRE [4]: 0.2 mg/dL | DBIL [4]: 0 mg/dL | GLC [4]: 183.2 mg/dL | IP [4]: 7.7 mg/dL | K [4]: 4.4 meq/L | LDH [4]: 163.4 IU/L | PL [4]: 143.6 mg/dL | RALB [4]: 3.1 g/dL | TBIL [4]: 0.014 mg/dL | TC [4]: 78.6 mg/dL | TG [4]: 85.8 mg/dL | TP [4]: 5.7 g/dL | gamma-GTP [4]: 1.6 IU/L | TERMINAL_BW (3 mg/kg, 3 h, dose level High): 219.6 g | APTT (3 mg/kg, 3 h, dose level High): 22.3 s | Bas (3 mg/kg, 3 h, dose level High): 0% | Eos (3 mg/kg, 3 h, dose level High): 1% | Fbg (3 mg/kg, 3 h, dose level High): 271 mg/dL | Hb (3 mg/kg, 3 h, dose level High): 12.7 g/dL | Ht (3 mg/kg, 3 h, dose level High): 39% | Lym (3 mg/kg, 3 h, dose level High): 78.4% | MCV (3 mg/kg, 3 h, dose level High): 65.3 fL | Mono (3 mg/kg, 3 h, dose level High): 2.8% | PT (3 mg/kg, 3 h, dose level High): 15.9 s | Plat (3 mg/kg, 3 h, dose level High): 130.5 x10_4/uL | RBC (3 mg/kg, 3 h, dose level High): 596.8 x10_4/ul | Ret (3 mg/kg, 3 h, dose level High): 6.7% | WBC (3 mg/kg, 3 h, dose level High): 97.6 x10_2/uL | KIDNEY_L (3 mg/kg, 3 h, dose level High): 1 g | KIDNEY_R (3 mg/kg, 3 h, dose level High): 1 g | KIDNEY_TOTAL (3 mg/kg, 3 h, dose level High): 1.9 g | LIVER (3 mg/kg, 3 h, dose level High): 9.7 g | ALP [5]: 1622.8 IU/L | ALT [5]: 43.4 IU/L | AST [5]: 80.6 IU/L | CRE [5]: 0.2 mg/dL | DBIL [5]: 0 mg/dL | GLC [5]: 177.6 mg/dL | IP [5]: 9 mg/dL | K [5]: 4.2 meq/L | LDH [5]: 166.2 IU/L | Na [5]: 139.4 meq/L | PL [5]: 115 mg/dL | RALB [5]: 2.8 g/dL | TBIL [5]: 0.026 mg/dL | TC [5]: 64.8 mg/dL | TG [5]: 63.6 mg/dL | TP [5]: 5.2 g/dL | gamma-GTP [5]: 1.6 IU/L | TERMINAL_BW (3 mg/kg, 6 h, dose level High): 210.6 g
